Key:
[1] = Release of the active substance from interface dressings into physiological saline solution, HPLC assay; assay type: physicochemical; conditions: Sepinov EMT 10 versus Montanox 80 as releasing agent in interface dressings, irrespective of the active substance
Method: In the case of interface dressings, prepared from the masses of examples 1 to 4 and 13 to 18, samples of 25 cm^2 of dressing (cut with a calibrated punch and precisely weighed) were introduced into an Erlenmeyer flask containing 10 ml of physiological saline solution. The glassware, hermetically sealed, was placed in an incubator at 37° C. for 24 h. The supernatant was removed and filtered. The amount of active substance was assayed by HPLC (high performance liquid chromatography) according to the methods described below.
The following conditions for assaying by high performance liquid chromatography (HPLC) were used: […]
The detection threshold for the potassium sucrose octasulfate was 0.06 mg/ml. When no peak was detected, the result was increased by the detection threshold. […]
The detection threshold for the silver sulfadiazine was 0.0006 mg/ml. When no peak was detected, the result was increased by the detection threshold.
• A calibration straight line was plotted using the calibration points, and the equation of the straight line y=ax+b (r^2>0.999), in which y=surface area under the peak x=concentration of the standard (in mg/ml) r^2=determination coefficient, was calculated. • The content of potassium sucrose octasulfate or silver sulfadiazine (x) was calculated. […]
The percentage of release of the active substance is calculated according to the following formula: […]

[2] = system: normal human dermal fibroblasts (NHDF) R9PF2; test: Effect of dressings on fibroblast cultures (MTT test, tritiated thymidine incorporation); assay type: cell-based; conditions: releasing agent in dressings
Method: • Type: pool of normal human dermal fibroblasts (NHDF) R9PF2 • Culture: 37° C., 5% CO2 Culture Medium: • DMEM (Dulbecco's Modified Eagle Medium, Invitrogen 21969035) • 2 mM L-glutamine (Invitrogen 25030024) • 50 UI/ml penicillin, 50 μg/ml streptomycin (Invitrogen 15070063) • 10% fetal calf serum (v/v, Invitrogen 10270098). Products Tested:
Dressings according to examples 1 and 23 were cut to the size of the wells and tested.
The fibroblasts were seeded at confluence in a 12-well plate.
Pieces of each dressing were cut to a size of 1.4 cm×1.4 cm (i.e. 1.96 cm^2), applied to the surface of the fibroblasts and held in place using a plug. A control without dressing but with a plug, and also a control without dressing and without plug were carried out.
The cells were then incubated for 48 hours, 96 hours and 168 hours (7 days) at 37° C. and 5% CO2. For each incubation time, the metabolic activity was measured using a standard MTT test, which accounts for the mitochondrial dehydrogenases activity. Tritiated thymidine ([methyl-3H]-thymidine, Amersham TRK 686 2.5 μCi/ml final concentration) was added during the last 24 hours of incubation, and then the DNA of the cells of the cell layers was extracted and purified and the radioactivity incorporated into the DNA was counted using a scintillation counter.
All experiments were carried out in triplicate. […]

Substance: polysorbate 80
- Release of the active substance with the releasing agent, comparison in words [1]: substantially the same release of the active substance
- Effect on fibroblasts (toxicity / proliferation), in words [2]: exhibits toxicity with respect to these cells

From patent US10500301B2, “Agent for salting out active principles in dressings containing at least one of fatty substance” (URGO RECHERCHE INNOVATION ET DEVELOPPEMENT, priority 2007, dated 2019)
